Laboratory results from US10689354B2, “Aminoazole derivative” (Teijin Pharma Limited, priority 2015, dated 2020).

Tests used:
human androgen receptor = biological target: T1, human androgen receptor (Homo sapiens, UniProt P10275); experiment: Reporter assay of an androgen receptor responsive sequence (luciferase, transiently transfected HEK293 cells); type: cell-based; details: 24 hours incubation, relative to activity of 100 nM DHT, read-out: AR transcriptive activity (pEC50) (converted)
T1 construct: expressed in transfected cells; host or cells: HEK293
T1 sequence (P10275 1-920): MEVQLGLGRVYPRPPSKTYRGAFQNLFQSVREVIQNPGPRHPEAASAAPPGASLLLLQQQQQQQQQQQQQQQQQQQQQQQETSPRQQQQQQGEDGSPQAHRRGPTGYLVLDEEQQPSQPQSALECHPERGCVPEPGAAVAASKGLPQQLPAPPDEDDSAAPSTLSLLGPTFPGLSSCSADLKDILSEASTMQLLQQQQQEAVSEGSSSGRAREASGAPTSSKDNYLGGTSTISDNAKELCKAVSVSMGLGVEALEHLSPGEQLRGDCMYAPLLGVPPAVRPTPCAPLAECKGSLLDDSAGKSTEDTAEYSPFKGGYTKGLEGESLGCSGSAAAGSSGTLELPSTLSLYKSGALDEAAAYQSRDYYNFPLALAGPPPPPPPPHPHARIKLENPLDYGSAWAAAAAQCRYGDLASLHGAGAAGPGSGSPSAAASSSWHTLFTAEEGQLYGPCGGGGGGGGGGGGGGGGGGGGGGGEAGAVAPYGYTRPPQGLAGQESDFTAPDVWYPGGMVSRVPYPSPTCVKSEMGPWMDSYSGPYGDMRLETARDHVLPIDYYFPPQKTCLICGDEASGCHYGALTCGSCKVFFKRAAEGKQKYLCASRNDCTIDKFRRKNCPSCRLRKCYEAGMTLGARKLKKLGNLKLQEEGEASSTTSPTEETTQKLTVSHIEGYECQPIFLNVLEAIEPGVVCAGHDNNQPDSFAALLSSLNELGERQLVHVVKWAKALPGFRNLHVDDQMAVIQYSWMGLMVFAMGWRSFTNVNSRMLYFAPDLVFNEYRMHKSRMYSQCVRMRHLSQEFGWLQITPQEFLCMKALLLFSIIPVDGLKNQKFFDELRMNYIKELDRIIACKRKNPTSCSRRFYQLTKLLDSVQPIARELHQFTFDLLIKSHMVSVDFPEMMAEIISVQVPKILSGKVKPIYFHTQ
Method: Reporter Assay of an Androgen Receptor Responsive Sequence
To examine the agonist activity of compounds for androgen, a reporter assay using an androgen receptor responsive sequence was conducted.
Using Lipofectamine 2000 (Invitrogen), a plasmid mixture (pGL4-ARE (200 ng/well), pcDNA3-hAR (20 ng/well), pRL-TK (Promega) (150 ng/well)) was transiently transfected into HEK293 cells. The contents of the plasmid (mixture) are as follows:
pGL4-ARE is a reporter plasmid containing firefly luciferase sequence under the control of androgen receptor responsive sequence; pcDNA3-hAR is a plasmid containing full-length sequence of human androgen receptor under the constant control of CMV promoter; pRL-TK is a plasmid containing Renilla Luciferase sequence under the control of herpes simplex virus thymidine kinase and used as an internal standard for evaluations of transfection efficiency and compound toxicity.
After the incubation of Lipofectamine 2000 and the plasmid mixture in Opti-MEM for 20 minutes, the mixture was mixed with a cell suspension prepared with Opti-MEM in the similar way, and the cell suspension was plated to a 96-well plate at 20000 cells/well. The transfection was conducted by incubating the plates under the condition of 5% CO2 at 37° C. for 3 hours. Three hours after the transfection, the culture medium was removed and a compound solution prepared by DMEM supplemented with 5% FBS and treated with charcoal was added, and the mixture was incubated under the condition of 5% CO2 at 37° C. for 24 hours. After the incubation with the compound, luciferase activities were measured with a luminometer using Dual-Glo™ Luciferase Assay System (Promega). The measurement of the luciferase activities was performed in accordance with the protocol recommended by Promega. The activity of the compound was determined by comparing to the activity of 100 nM of DHT, and quantified the logarithm value (pEC50) of reciprocal value of the effective concentration of the compound which is equal to 50% of the activity value by applying a 4 parameter goodness-of-fit calculation.

[1] = biological target: T2, androgen receptor (AR-LBD) (Rattus norvegicus, UniProt P15207); experiment: Evaluation of androgen receptor affinity (PolarScreen Androgen Receptor Competitor Assay Kit, Red; fluorescence polarization); details: 22° C. for 5 hours, relative to binding rate of 1 μM DHT, read-out: AR affinity (pEC50) (converted)
T2 construct: 5 μL of 2×AR-LBD/Fluoromone AL Red Complex contained in the kit; purchased Invitrogen
T2 sequence (P15207 651-882 limits assumed): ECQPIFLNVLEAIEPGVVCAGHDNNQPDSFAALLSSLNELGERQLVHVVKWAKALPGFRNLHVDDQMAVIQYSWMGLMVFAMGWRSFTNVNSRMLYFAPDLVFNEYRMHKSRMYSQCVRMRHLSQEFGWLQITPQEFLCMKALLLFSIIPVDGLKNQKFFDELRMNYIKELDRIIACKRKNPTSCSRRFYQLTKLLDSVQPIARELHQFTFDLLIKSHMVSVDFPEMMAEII
Procedure, shortened: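 Fluorescence polarization competition assay: compound was incubated in duplicate with the kit's AR-LBD/Fluoromone AL Red complex for 5 h at 22 °C. Binding was expressed relative to 1 μM DHT, and pEC50 was derived by 4-parameter fit.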

EC50 (human androgen receptor) [nM] | EC50 [1] [nM] | SMILES
31.6 | 31.6 | Cc1ccc(CN(c2ccc(C#N)cc2)c2nc(C(=O)NS(C)(=O)=O)c(C)s2)cc1F [Compound 115, 2-[4-cyano-N-[(3-fluoro-4-methyl-phenyl)methyl]anilino]-5-methyl-N-methylsulfonyl-thiazole-4-carboxamide]
> 10000 | 1000 | Cc1sc(N(CCC2CCCCC2)Cc2ccc(OC(F)(F)F)cc2)nc1C(=O)NS(=O)(=O)Cc1cccc(F)c1 [Compound 735, 2-[2-cyclohexylethyl-[[4-(trifluoromethoxy)phenyl]methyl]amino]-N-[(3-fluorophenyl)methylsulfonyl]-5-methyl-thiazole-4-carboxamide]
1260 | 63.1 | Cc1sc(N(Cc2ccccc2)c2ccc(C(F)(F)F)cc2)nc1C(=O)NS(C)(=O)=O [Compound 341, 2-[N-benzyl-4-(trifluoromethyl)anilino]-5-methyl-N-methylsulfonyl-thiazole-4-carboxamide]
501 | 79.4 | Cc1oc(N(CCc2ccc(Cl)cc2)Cc2cccc(OC(F)(F)F)c2)nc1C(=O)NS(C)(=O)=O [Compound 542, 2-[2-(4-chlorophenyl)ethyl-[[3-(trifluoromethoxy)phenyl]methyl]amino]-5-methyl-N-methylsulfonyl-oxazole-4-carboxamide]
200 | 100 | Cc1sc(N(Cc2cc(F)cc(F)c2F)c2ccc(C#N)cc2)nc1C(=O)NS(C)(=O)=O [Compound 109, 2-[4-cyano-N-[(2,3,5-trifluorophenyl)methyl]anilino]-5-methyl-N-methylsulfonyl-thiazole-4-carboxamide]
1000 | 158 | Cc1sc(N(CCc2ccc(OC(F)F)cc2)Cc2nc(C3CC3)no2)nc1C(=O)NS(C)(=O)=O [Compound 162, 2-[(3-cyclopropyl-1,2,4-oxadiazol-5-yl)methyl-[2-[4-(difluoromethoxy)phenyl]ethyl]amino]-5-methyl-N-methylsulfonyl-thiazole-4-carboxamide]
25.1 | 63.1 | COc1ccc(CN(c2ccc(C#N)cc2)c2nc(C(=O)NS(C)(=O)=O)c(C)s2)cc1 [Compound 342, 2-[4-cyano-N-[(4-methoxyphenyl)methyl]anilino]-5-methyl-N-methylsulfonyl-thiazole-4-carboxamide]
158 | 25.1 | Cc1sc(N(Cc2ccc(SC(F)(F)F)cc2)c2ccc(C#N)cc2)nc1C(=O)NS(C)(=O)=O [Compound 113, 2-[4-cyano-N-[[4-(trifluoromethylsulfanyl)phenyl]methyl]anilino]-5-methyl-N-methylsulfonyl-thiazole-4-carboxamide]
63.1 | 39.8 | Cc1sc(N(Cc2ccc(F)cc2)c2ccc(C#N)cc2)nc1C(=O)NS(=O)(=O)Cc1ccncc1 [Compound 501, 2-[4-cyano-N-[(4-fluorophenyl)methyl]anilino]-5-methyl-N-(4-pyridylmethylsulfonyl)thiazole-4-carboxamide]
126 | 31.6 | Cc1sc(N(CCc2ccc(Cl)cc2)Cc2ccccc2)nc1C(=O)NS(C)(=O)=O [Example 299, 2-[benzyl-[2-(4-chlorophenyl)ethyl]amino]-5-methyl-N-methylsulfonyl-thiazole-4-carboxamide]

Continued, compound first:

SMILES | EC50 (human androgen receptor) [nM] | EC50 [1] [nM]
COc1cc(Cl)ccc1CN(c1ccc(C#N)cc1)c1nc(C(=O)NS(C)(=O)=O)c(C)s1 [Compound 118, 2-[N-[(4-chloro-2-methoxy-phenyl)methyl]-4-cyano-anilino]-5-methyl-N-methylsulfonyl-thiazole-4-carboxamide] | 398 | 50.1
Cc1sc(N(Cc2ccc(F)c3cccnc23)c2ccc(C#N)cc2)nc1C(=O)NS(C)(=O)=O [Example 175, 2-[4-cyano-N-[(5-fluoro-8-quinolyl)methyl]anilino]-5-methyl-N-methylsulfonyl-thiazole-4-carboxamide] | 126 | 79.4
Cc1sc(N(CCc2ccsc2)c2ccc(C#N)cc2)nc1C(=O)NS(C)(=O)=O [Compound 132, 2-[4-cyano-N-[2-(3-thienyl)ethyl]anilino]-5-methyl-N-methylsulfonyl-thiazole-4-carboxamide] | 1580 | 316
Cc1sc(N(Cc2ccc(OCC(F)(F)F)cc2)c2ccc(C#N)cc2)nc1C(=O)NS(C)(=O)=O [Compound 580, 2-[4-cyano-N-[[4-(2,2,2-trifluoroethoxy)phenyl]methyl]anilino]-5-methyl-N-methylsulfonyl-thiazole-4-carboxamide] | 631 | 25.1
COc1cccc(CN(c2ccc(C#N)cc2)c2nc(C(=O)NS(C)(=O)=O)c(Br)s2)c1 [Example 265, 5-bromo-2-[4-cyano-N-[(3-methoxyphenyl)methyl]anilino]-N-methylsulfonyl-thiazole-4-carboxamide] | 158 | 50.1
Cc1sc(N(Cc2ccc(Br)cc2F)c2ccc(C#N)cc2)nc1C(=O)NS(C)(=O)=O [Example 185, 2-[N-[(4-bromo-2-fluoro-phenyl)methyl]-4-cyano-anilino]-5-methyl-N-methylsulfonyl-thiazole-4-carboxamide] | 63.1 | 39.8
CS(=O)(=O)NC(=O)c1nc(N(Cc2ccc(C(F)(F)F)cc2)c2ccc(C#N)cc2)sc1Br [Example 251, 5-bromo-2-[4-cyano-N-[[4-(trifluoromethyl)phenyl]methyl]anilino]-N-methylsulfonyl-thiazole-4-carboxamide] | 25.1 | 39.8
COCCCS(=O)(=O)NC(=O)c1nc(N(CCc2ccc(C#N)cc2)Cc2ccc(OC(F)F)cc2)oc1C [Compound 557, 2-[2-(4-cyanophenyl)ethyl-[[4-(difluoromethoxy)phenyl]methyl]amino]-N-(3-methoxypropylsulfonyl)-5-methyl-oxazole-4-carboxamide] | 631 | 39.8
Cc1sc(N(Cc2csc(C(F)(F)F)n2)c2ccc(C#N)cc2)nc1C(=O)NS(C)(=O)=O [Compound 2, 2-[4-cyano-N-[[2-(trifluoromethyl)thiazol-4-yl]methyl]anilino]-5-methyl-N-methylsulfonyl-thiazole-4-carboxamide] | 100 | 100
Cc1oc(N(CCc2ccc(Cl)cc2)Cc2ccccc2)nc1C(=O)NS(C)(=O)=O [Example 220, 2-[benzyl-[2-(4-chlorophenyl)ethyl]amino]-5-methyl-N-methylsulfonyl-oxazole-4-carboxamide] | 316 | 39.8
Cc1sc(N(Cc2cnc(C(F)(F)F)cn2)c2ccc(C#N)cc2)nc1C(=O)NS(C)(=O)=O [Compound 537, 2-[4-cyano-N-[[5-(trifluoromethyl)pyrazin-2-yl]methyl]anilino]-5-methyl-N-methylsulfonyl-thiazole-4-carboxamide] | 631 | 316
